Assays:
Assay in all cases: relative viability (nuclei count vs DMSO), 5 days (fraction); higher = more cells survive
Erlotinib + Pictilisib = compound: C#Cc1cccc(Nc2ncnc3cc(OCCOC)c(OCCOC)cc23)c1 [Erlotinib] + CS(=O)(=O)N1CCN(Cc2cc3nc(-c4cccc5[nH]ncc45)nc(N4CCOCC4)c3s2)CC1 [Pictilisib] (partner 1 µM)
Summary of the method: (§1)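 Five library-drug doses in √10 steps were combined with a fixed anchor-drug dose, or a single drug was given alone, by pin tool to lung cancer cell lines in 1536-well plates the day after seeding. Nuclei were stained and counted after 5 days. Relative viability is the nuclei count in treated wells over that in vehicle wells, taken as the median of duplicate plates.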

Erlotinib + Linsitinib = compound: C#Cc1cccc(Nc2ncnc3cc(OCCOC)c(OCCOC)cc23)c1 [Erlotinib] + C[C@]1(O)C[C@@H](c2nc(-c3ccc4ccc(-c5ccccc5)nc4c3)c3c(N)nccn32)C1 [Linsitinib] (partner 1 µM)
Summary of the method: as §1

AT9283 + Luminespib = compound: O=C(Nc1c[nH]nc1-c1nc2ccc(CN3CCOCC3)cc2[nH]1)NC1CC1 [AT9283] + CCNC(=O)c1noc(-c2cc(C(C)C)c(O)cc2O)c1-c1ccc(CN2CCOCC2)cc1 [Luminespib] (partner 0.01 µM)
Summary of the method: as §1

Erlotinib + Lapatinib = compound: C#Cc1cccc(Nc2ncnc3cc(OCCOC)c(OCCOC)cc23)c1 [Erlotinib] + CS(=O)(=O)CCNCc1ccc(-c2ccc3ncnc(Nc4ccc(OCc5cccc(F)c5)c(Cl)c4)c3c2)o1 [Lapatinib] (partner 2 µM)
Summary of the method: as §1

AT9283 + Bortezomib = compound: O=C(Nc1c[nH]nc1-c1nc2ccc(CN3CCOCC3)cc2[nH]1)NC1CC1 [AT9283] + CC(C)C[C@H](NC(=O)[C@H](Cc1ccccc1)NC(=O)c1cnccn1)B(O)O [Bortezomib] (partner 0.002 µM)
Summary of the method: as §1

Cell Line	relative viability (Erlotinib + Pictilisib; first compound 0.02 µM)	relative viability (Erlotinib + Pictilisib; first compound 0.2 µM)	relative viability (Erlotinib + Pictilisib; first compound 0.6325 µM)	relative viability (Erlotinib + Pictilisib; first compound 2 µM)	relative viability (Erlotinib + Linsitinib; first compound 0.02 µM)	relative viability (Erlotinib + Linsitinib; first compound 0.2 µM)	relative viability (Erlotinib + Linsitinib; first compound 0.6325 µM)	relative viability (Erlotinib + Linsitinib; first compound 2 µM)	relative viability (AT9283 + Luminespib; first compound 0.003 µM)	relative viability (AT9283 + Luminespib; first compound 0.03 µM)	relative viability (AT9283 + Luminespib; first compound 0.09487 µM)	relative viability (AT9283 + Luminespib; first compound 0.3 µM)	relative viability (Erlotinib + Lapatinib; first compound 0.02 µM)	relative viability (Erlotinib + Lapatinib; first compound 0.2 µM)	relative viability (Erlotinib + Lapatinib; first compound 0.6325 µM)	relative viability (AT9283 + Bortezomib; first compound 0.003 µM)	relative viability (AT9283 + Bortezomib; first compound 0.03 µM)	relative viability (AT9283 + Bortezomib; first compound 0.09487 µM)	relative viability (AT9283 + Bortezomib; first compound 0.3 µM)	relative viability (Erlotinib + Lapatinib; first compound 2 µM)
H3255	0.497	0.159	0.118	0.0937	0.971	0.297	0.188	0.115	0.713	0.905	0.969	0.254	0.323	0.259	0.253	0.632	0.719	0.542	0.172	
HARA	0.555	0.46	0.311	0.155	1.13	0.834	0.59	0.197	0.755	0.189	0.0743	0.124	0.857	0.902	0.976	0.795	1.05	0.172	0.158	0.688
HCC-78	0.195	0.207	0.218	0.21	0.5	0.439	0.401	0.383					0.737	0.742	0.696	0.425	0.472	0.237	0.245	0.701
HCC-366	0.185	0.0789	0.12	0.137	0.752	0.52	0.574	0.564					1.08	1	1.33	1.02	0.921	0.129	0.0684	1.09
IA-LM	0.338		0.348	0.13	0.62	0.578	0.55	0.595					1.14	0.712	1.43	0.748	0.367	0.112	0.0951	0.73
LCLC-103H	0.614	0.587	0.753	0.538	1.1	1.21	1.15	1.01	0.829	0.755	0.313	0.304				1.08	0.935	0.641	0.538	
LK-2	0.649	0.519	0.735	0.599	0.557	0.43	0.869	0.377	0.195	0.19	0.176	0.206	0.971	0.875	1.17					0.844
NCI-H358	0.319	0.313	0.303	0.28	0.817	0.558	0.377	0.292	0.4	0.147	0.166	0.129	0.379	0.421	0.519					0.452

Reference: the supplement of paper PMC10307832
